Experimental data published in patent EP0982028A1, “New use of taxoid derivatives” (RHONE-POULENC RORER S.A., priority 1998, dated 2000).
≈ marks a conversion by molar mass, not a printed value. Where “and” joins values, the source holds several entries; their conditions need not be identical. Equal entries are not always repeated. Entries after “also recorded” stand apart in the source; their conditions may differ. Where two headings read alike, the source gives them in different places.

Legend:
[1] = system: P388/CPT5 cell line; details: P388/CPT5, acquired resistance to camptothecin, no P-glycoprotein
Protocol: (§5) The resistance factor was calculated by dividing the IC50 value obtained on resistant cells by the IC50 value obtained on sensitive cells.

[2] = system: HL60/TAX; details: IC50 resistant / IC50 sensitive cells, 4 days of continuous exposure
Protocol: as §5

[3] = system: P388/VCR; details: IC50 resistant / IC50 sensitive cells, 4 days of continuous exposure
Protocol: as §5

[4] = system: P388/TXT; details: IC50 resistant / IC50 sensitive cells, 4 days of continuous exposure
Protocol: as §5

[5] = system: advanced colon adenocarcinoma C38; assay: In vivo antitumor activity against advanced stage colon adenocarcinoma C38; parameters: species or system B6D2F1 female mice; details: for T-C: tumor to reach 1000 mg
Protocol: (§1) In vivo schedule of administration and antitumor efficacy studies were carried out using a preclinical standard formulation of Product of formula Ia in ethanol: polysorbate 80 (50:50, v/v). After dilution, the final concentration was 5 % ethanol, 5 % polysorbate, 90 % glucose-5 % in water.
(§2) Product of formula Ia was administered by the intravenous route (i.v.). The experiments and data analyses were done according to standard protocols.
(§3) In cases of high antitumor activity, the two following end points were also used: • tumor growth delay, T-C, where T and C are the median times in days required for the treatment group and the control group tumors to reach a predetermined size (750 to 1500 mg). • log cell kill, which is the logarithm of the total number of cells killed by treatment.
For advanced stage tumors, regressions can be either partial (more than 50 % reduction in tumor mass) or complete. Complete regressions are included in the partial regressions.
(§4) Toxicity was based on drug deaths (≥ 10 %) or a weight loss nadir > 20 %. Docetaxel was used for comparison trials when needed.
Product of formula Ia was administered i.v. to mice bearing 200 to 400 mg of tumor. […] In comparison, docetaxel at the HNTD produced only 40 % partial regressions in the same trial.

[6] = system: P388/DOX; details: IC50 on resistant cells divided by IC50 on sensitive cells, 4 days of continuous exposure
Protocol: as §5

[7] = system: colon adenocarcinoma C51; assay: In vivo antitumor activity against colon adenocarcinoma C51; parameters: species or system BALB/c female mice; details: for T-C: tumor to reach 750 mg
Protocol: as §1, §2
The activity end points used to assess subcutaneously implanted solid tumors were: • tumor growth inhibition, T/C, where T and C are the median tumor weights in mg of the treated and the control groups, respectively. […] A T/C < 10 %, ++, is considered as a high antitumor activity level which justifies further development (DN-2 level).
as §3, §4
Product of formula Ia was administered i.v. on day 4, 6, 8. […] The dosage below yielded a 2.2 log cell kill.

[8] = system: Calc18/TXT; details: IC50 resistant / IC50 sensitive cells, 4 days of continuous exposure
Protocol: as §5

[9] = system: human colon adenocarcinoma CaCo-2 cell line (ATCC HTB37); assay: In vitro growth inhibition on CaCo-2 cell line (neutral red); assay type: cell-based
Protocol: The methodology was used, i.e., 96 well plates, time of contact of the drugs (96 hours) and neutral red coloration of viable cell. Results expressed as IC50, were summarized in the next table.

[10] = system: KB V1; details: IC50 resistant / IC50 sensitive cells, 4 days of continuous exposure
Protocol: as §5

[11] = 7.7 mg/kg per injection i.v., days 14,17,20
[12] = 12.4 mg/kg per injection i.v., days 14,17,20
[13] = 20.0 mg/kg per injection i.v., days 14,17,20
[14] = 32.2 mg/kg per injection i.v., days 14,17,20
[15] = 5.8 mg/kg per injection i.v., days 4,6,8
[16] = 9.3 mg/kg per injection i.v., days 4,6,8
[17] = 15.0 mg/kg per injection i.v., days 4,6,8
[18] = 24.2 mg/kg per injection i.v., days 4,6,8

| Compound | Resistance factor [1] | Resistance factor [2] | Resistance factor [3] | Resistance factor [4] | Comments [5, 11] | Complete regressions [5, 11] | log cell kill total [5, 11] | T-C [5, 11] [days] | Comments [5, 12] | Complete regressions [5, 12] | Comments [5, 13] | Complete regressions [5, 13] | Comments [5, 14] | Resistance factor [6] | Comments [7, 15] | T/C in % day 18 [7, 15] [%] | log cell kill total [7, 15] | T-C [7, 15] [days] | Comments [7, 16] | T/C in % day 18 [7, 16] [%] | other results |
| --- | --- | --- | --- | --- | --- | --- | --- | --- | --- | --- | --- | --- | --- | --- | --- | --- | --- | --- | --- | --- | --- |
| CC(=O)O[C@@]12CO[C@@H]1C[C@H](O)[C@@]1(C)C(=O)[C@H](O)C3=C(C)[C@@H](OC(=O)[C@H](O)[C@@H](NC(=O)OC(C)(C)C)c4ccccc4)C[C@@](O)([C@@H](OC(=O)c4ccccc4)[C@H]21)C3(C)C [Docetaxel] | 10.5 | 8.1 | 5.8 | 4.8 | Inactive | 0/5 | 0.3 | 2.5 | Marginal activity | 0/5 | HNTD highly active | 0/5 | Toxic | 50.7 | Active | 4 | 0.9 | 8.9 | Active | 0 | log cell kill total [5, 12]: 0.7; T-C [5, 12]: 6.1 days; log cell kill total [5, 13]: 3.1; T-C [5, 13]: 29.1 days; bwl = body weight loss [5, 14]: 20.6%; partial regressions ([5]; at the HNTD, partial = more than 50 % reduction in tumor mass): 40%; Resistance factor ([6]; listed as docetaxel): 50; log cell kill total [7, 16]: 2.2; T-C [7, 16]: 22.4 days; Comments [7, 17]: HNTD highly active; T/C in % day 18 [7, 17]: 0%; log cell kill total [7, 17]: 3.1; T-C [7, 17]: 31.1 days; Comments [7, 18]: Toxic; bwl = body weight loss [7, 18]: 22.8%; Resistance factor [8]: 23.5; IC50 ([9]; Homo sapiens, 96 well plates, 96 hours contact, neutral red): 0.108 ± 0.017 µg/mL (≈ 0.134 µM); IC50 on CaCo-2 cells relative to Product of formula Ia ([9]; IC50 docetaxel versus IC50 Product of formula Ia): 4.9 times; Resistance factor [10]: 59.0; Resistance factor ([10]; listed as docetaxel): 59 |
| CC[C@@]1(O)C(=O)OCc2c1cc1n(c2=O)Cc2cc3ccccc3nc2-1 [camptothecin] | 286 | – | – | – | – | – | – | – | – | – | – | – | – | – | – | – | – | – | – | – | – |
| 4α-acetoxy-2α-benzoyloxy-5β,20-epoxy-1β-hydroxy-7β,10β-dimethoxy-9-oxo-11-taxen-13α-yl (2R,3S)-3 tert-butoxycarbonylamino-2-hydroxy-3-phenylpropionate [Product of formula Ia] | 4.8 | 2.5 | 1.8 | 1.8 | Active | 2/5 | 2.7 | 25.0 | Highly active | the same number of complete regressions and 5/5 | HNTD highly active | 5/5 | Toxic | 10.0 | Active | 0 | 2.2 | 21.9 | highly active; also recorded: HNTD active | 0 | TFS = tumor free survivors observed on day 139 [5, 12]: 4/5; tumor free survivors ([5]; 12.4 mg/kg/injection i.v.): 80%; TFS = tumor free survivors observed on day 139 [5, 13]: all mice being tumor free survivors and 5/5; DD = drug death [5, 14]: 1/5; HNTD = highest nontoxic dose ([5]; i.v., mice bearing 200 to 400 mg of tumor): 20 mg/kg/injection; Resistance factor ([6]; listed as product of formula Ia): 10; log cell kill total [7, 16]: 2.6; T-C [7, 16]: 25.8 days; Comments [7, 17]: Toxic; DD = drug death [7, 17]: 1/5; Comments [7, 18]: Toxic; DD = drug death [7, 18]: 5/5; HNTD = highest nontoxic dose ([7]; i.v. on day 4, 6, 8, C51-bearing mice): 9.3 mg/kg/injection; Resistance factor [8]: 4.3; Resistance factor [10]: 7.6 |
